Experimental data published in patent US12234288B2, “Immunogenic arginase 2 polypeptides” (IO Biotech ApS, priority 2018, dated 2025).
“Also recorded” adds a separate entry of the source.

Tested on: PBMCs from healthy donors and cancer patients
Experiment: IFNγ ELISPOT of PBMCs pre-stimulated one week in vitro with peptide and low-dose IL-2
Type: cell-based, human
Settings: for IFNγ ELISPOT response: ARG2 peptide library screen, PBMCs from 6 healthy donors, FIG. 3
Procedure: For in vitro ELISPOT, PBMCs from cancer patients and healthy donors were pulsed with 20 μM of […] (or with no peptide as a control) and 120 U/ml IL-2 in 24-well plates for 7 days before being used in an ELISPOT assay. The cells were placed in 96-well nitrocellulose ELISPOT plates (MultiScreen MAIP N45; Millipore) pre-coated with IFNγ capture antibody (Mabtech). Arginase peptides added to a final concentration of 5 μM and plates incubated at 37° C. for 14-16 hours. After the incubation the cells were washed off and secondary biotinylated Ab (Mabtech, cat. 3420-{6-1000) was added for 2 hours at room temperature. Unbound secondary antibody was washed off and streptavidin conjugated alkaline phosphatase (AP) (Mabtech, cat. 3310-10) was added for 1 hour at room temperature. Unbound conjugated enzyme was washed off and the assay was developed by adding BCIP/NBT substrate (Mabtech, cat. 3650-10). Developed ELISPOT plates were analyzed on CTL ImmunoSpot S6 Ultimate-V analyzer using Immunospot software v5.1. Responses were reported as the difference between average numbers of spots in wells stimulated with arginase2 and wells without added peptide.
To test whether these peptides could be used to identify Arginase2 responses, PBMCs from 12 healthy donors and one cancer patients were screened for responses in IFNγ ELISPOT. PBMCs were stimulated with Arginase2 peptides and low dose IL-2 for 1 week prior to ELISPOT.
The entire arginase2 protein sequence was divided into overlapping 20-amino-acid-long peptides (with a final peptide of 24 amino acids), generating a library of 34 peptides covering the whole sequence (SEQ ID NOs 1-34)). Each peptide in the library overlapped with the first 10 amino acids of the following peptide. Using this arginase2 peptide library and the IFNγ ELISPOT assay, we next screened PBMCs from 6 healthy donors for spontaneous responses. The PBMCs were stimulated for one week with a pool of 3-4 adjacent 20-mer arginase2 library peptides and low-dose IL-2 (120 U/mL). They were then set up for an IFNγ ELISPOT assay to screen for responses against each 20-mer peptide separately.
PBMCs from two healthy donors were stimulated for one week with a single peptide and low-dose IL-2 (120 U/mL) before IFNy ELISPOTassay to validate the responses observed in the library screen.
PBMCs from […] were stimulated for one week with a single peptide and low-dose IL-2 (120 U/mL) before IFNy ELISPOTassay to validate the responses observed in the library screen. ARG2_1, ARG2_5, ARG2_13, ARG2_18 and ARG2_22 were tested in this validation.
ARG2_1 was used to screen for responses in 8 melanoma patients (AA07-AA31), 4 prostate cancer patients (UR07-27) and 13 healthy donors. PBMCs from each were stimulated for one week with a single peptide and low-dose IL-2 (120 U/mL) before IFNy ELISPOT assay.
PBMCs from healthy donors or cancer patients were stimulated with 10 μM of ARG2-derived peptides in vitro to enhance assay sensitivity. On day 2, IL-2 was added to a total of 120 U/ml IL-2 (Novartis). After 7 days, 4-6×10^5 PBMCs were placed at the bottom of an ELISPOT plate pre-coated with IFNy capture antibody (Mabtech). PBMCs from each donor or patient were set up in triplicates or quadruplicates for peptide (5 μM ARG2-derived peptide) and control stimulations. Cells were incubated in ELISPOT plates in the presence of an antigen for 14-16 hrs after which they were washed off and secondary biotinylated antibody (Mabtech) was added. After two hour incubation the secondary antibody was washed off before addition of streptavidin conjugated alkaline phosphatase (Mabtech) for 1 hr. Next, unbound enzyme was washed off and the assay was developed by adding BCIP/NBT subtrate (Mabtech). Developed ELISPOT plates were analyzed on CTL Immunospot S6 Ultimate-V analyzer with ImmunoSpot software, version 5.1. […]

Sequence | donors in which A2L2 immune responses were higher than ARG2-1 responses (6 healthy donors, not significant (p=0.0625), FIG. 15B) | IFNy ELISPOT response (30 healthy donors and 18 cancer patients, FIG. 15) | donors with IFNy ELISPOT responses (30 healthy donors and 18 cancer patients, FIG. 15C) | IFNy ELISPOT response to long peptides (PBMCs from 6 healthy donors stimulated once, FIG. 15A) | immune responses compared to ARG2-1 responses in the same donor (not significant (p=0.7038), FIG. 15E) | donors with significant IFNy ELISPOT responses (8 melanoma patients, 4 prostate cancer patients and 13 healthy donors (15 out of 25), FIG. 8) | screened donors with significant IFNy ELISPOT responses (33 HDs and 19 cancer patients with solid tumors, FIG. 14A) | IFNγ ELISPOT response (listed as ARG2-1) | IFNγ ELISPOT response (listed as Arg2_1) | AML patients with a significant IFNy ELISPOT response (PBMCs from patients diagnosed with AML, FIG. 14A) | IFNy ELISPOT response (healthy donors and cancer patients, FIG. 14) | IFNy ELISPOT response (validation of other regions, PBMCs from four healthy donors, FIG. 5) | IFNy ELISPOT response (validation of other regions, PBMCs from four healthy donors, FIG. 5, listed as Arg2_1)
SLRGSLSRLLQTRVHSILKKSVHSVAVIGAPFS (listed as Homo sapiens) [A2L2, long ARG2 peptide, aa2-34, 33-mer] | 5 out of 6 | strong and frequent CD4+ T-cell responses | about 80% | strongest and most frequent immune responses | on average higher | – | – | – | – | – | – | – | –
LQTRVHSILKKSVHSVAVIG (listed as Homo sapiens) [ARG2_1, polypeptide derived from human Arginase2, aa11-30] | – | – | – | – | – | 60% | around 75% | highest and most frequent responses | highest responses | 3 out of 9 | Strong and frequent responses; also recorded: widely recognized | Strong and prominent responses | strong and prominent responses
